Measured values as given in PMC8623851, “The Structural Determinants for α1-Adrenergic/Serotonin Receptors Activity among Phenylpiperazine-Hydantoin Derivatives” (Molecules, 2021).
Like-named read-outs stand apart in the source and are kept apart here.

Experiments:
α1-receptor [1] = test: Radioligand binding assay: affinity for α1-receptor ([3H]Prazosin, rat cortex)
Description: Tissue (rat cortex) was homogenized in 20 volumes of ice-cold 50 mM Tris-HCl buffer, pH 7.6, using an Ultra Turrax T25B homogenizer (IKA, Staufen, Germany). The homogenate was centrifuged at 20,000× g for 20 min. The resulting supernatant was decanted and pellet was resuspended in the same buffer and centrifuged again in the same conditions. The final pellet was resuspended in an appropriate volume of buffer (10 mg/1 mL).
The concentrations of analyzed compounds ranged from 10^−10 to 10^−5 M.
The incubation was terminated by rapid filtration over glass fiber filters FilterMate B (PerkinElmer, Waltham, MA, USA) using a 96-well FilterMate harvester (PerkinElmer, Waltham, MA, USA). Five rapid washes were performed with ice-cold 50 mM Tris-HCl buffer, pH 7.6.
The FilterMate was dried in a microwave and placed in a plastic bag (PerkinElmer, Waltham, MA, USA) and soaked in 10 mL of a liquid scintillation cocktail Ultima Gold MV (PerkinElmer, Waltham, MA, USA). After even distribution of the scintillation cocktail, the filter bag was sealed.
The radioactivity on the filter was measured by a MicroBeta TriLux 1450 scintillation counter (PerkinElmer, Waltham, MA, USA).
Radioligand binding data were analyzed using iterative curve fitting routines GraphPad Prism 3.0 (GraphPad Software, San Diego, CA, USA) using the built-in three parameter logistic model describing ligand competition binding to radioligand-labeled sites.

human 5-HT6 receptor = human 5-HT6 receptor (Homo sapiens, UniProt P50406); test: Radioligand binding assay 5-HT6 (HEK-293 membranes, [3H]-LSD)
Chain of human 5-HT6 receptor (P50406 whole entry): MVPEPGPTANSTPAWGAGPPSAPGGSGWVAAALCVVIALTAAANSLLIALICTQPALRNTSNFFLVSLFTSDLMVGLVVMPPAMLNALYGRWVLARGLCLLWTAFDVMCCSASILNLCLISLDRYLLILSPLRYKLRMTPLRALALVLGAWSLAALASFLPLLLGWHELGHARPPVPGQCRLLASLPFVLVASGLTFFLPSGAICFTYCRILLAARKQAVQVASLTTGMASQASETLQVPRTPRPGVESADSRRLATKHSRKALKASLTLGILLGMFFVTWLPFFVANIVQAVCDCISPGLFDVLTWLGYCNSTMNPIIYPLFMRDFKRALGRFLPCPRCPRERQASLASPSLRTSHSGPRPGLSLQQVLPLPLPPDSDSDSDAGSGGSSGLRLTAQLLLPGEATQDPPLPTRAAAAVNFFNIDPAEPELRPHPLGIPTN

human 5-HT7b receptor = human 5-HT7b receptor (Homo sapiens, UniProt P34969); test: Radioligand binding assay 5-HT7 (HEK-293 membranes, [3H]-5-CT)
Chain of human 5-HT7b receptor (P34969 1-432): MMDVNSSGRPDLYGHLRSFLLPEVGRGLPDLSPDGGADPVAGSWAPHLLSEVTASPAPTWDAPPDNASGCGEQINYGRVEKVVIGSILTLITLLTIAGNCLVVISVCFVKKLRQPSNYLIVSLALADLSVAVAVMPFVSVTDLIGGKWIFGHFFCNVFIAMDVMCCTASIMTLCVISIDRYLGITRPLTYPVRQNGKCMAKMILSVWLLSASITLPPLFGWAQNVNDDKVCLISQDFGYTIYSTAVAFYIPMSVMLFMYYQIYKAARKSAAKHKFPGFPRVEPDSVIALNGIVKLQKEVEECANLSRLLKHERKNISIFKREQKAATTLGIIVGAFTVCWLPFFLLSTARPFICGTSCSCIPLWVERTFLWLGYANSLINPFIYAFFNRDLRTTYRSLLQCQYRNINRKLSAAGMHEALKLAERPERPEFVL

human 5-HT1A receptor = target: T1, human 5-HT1A receptor (Homo sapiens, UniProt P08908); test: Radioligand binding assay 5-HT1A (HEK-293 membranes, [3H]-8-OH-DPAT)
T1 sequence (P08908 1-422): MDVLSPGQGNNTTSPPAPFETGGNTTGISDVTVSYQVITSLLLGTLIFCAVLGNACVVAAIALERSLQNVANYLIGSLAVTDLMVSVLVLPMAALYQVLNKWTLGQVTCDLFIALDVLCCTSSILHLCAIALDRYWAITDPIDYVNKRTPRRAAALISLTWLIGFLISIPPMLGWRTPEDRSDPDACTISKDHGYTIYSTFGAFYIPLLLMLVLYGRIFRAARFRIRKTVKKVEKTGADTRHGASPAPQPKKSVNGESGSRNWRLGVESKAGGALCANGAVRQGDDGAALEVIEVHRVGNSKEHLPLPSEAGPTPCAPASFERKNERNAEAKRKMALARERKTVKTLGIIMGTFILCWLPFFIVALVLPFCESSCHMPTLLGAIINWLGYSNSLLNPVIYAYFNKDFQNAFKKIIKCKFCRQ

α1B-AR = target: T2, α1B-AR (Homo sapiens, UniProt P35368); test: Intrinsic (functional) activity for α1B-AR (Aequoscreen); format: cell-based; conditions: antagonist potency; α1B-AR in mouse spleen (table title); 4–7 experimental results; read-out: IC50 ± SEM α1B-AR
T2 construct: expressed in transfected cells; host or cells: recombinant Aequoscreen cell line (frozen, ready to use)
T2 sequence (P35368 1-520): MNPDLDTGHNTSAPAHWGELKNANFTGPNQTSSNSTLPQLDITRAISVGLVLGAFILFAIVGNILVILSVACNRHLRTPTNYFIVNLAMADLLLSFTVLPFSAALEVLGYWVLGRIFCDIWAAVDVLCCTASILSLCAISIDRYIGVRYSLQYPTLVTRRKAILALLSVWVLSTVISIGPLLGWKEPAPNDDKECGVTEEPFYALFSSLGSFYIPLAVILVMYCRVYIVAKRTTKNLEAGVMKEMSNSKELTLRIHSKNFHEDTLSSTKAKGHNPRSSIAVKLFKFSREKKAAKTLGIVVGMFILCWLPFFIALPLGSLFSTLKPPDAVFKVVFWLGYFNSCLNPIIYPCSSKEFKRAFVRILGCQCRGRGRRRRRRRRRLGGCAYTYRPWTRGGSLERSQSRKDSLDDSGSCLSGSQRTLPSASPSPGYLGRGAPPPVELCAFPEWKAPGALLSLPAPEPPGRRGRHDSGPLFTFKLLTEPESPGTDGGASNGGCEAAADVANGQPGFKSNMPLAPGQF
Description: The Aequoscreen technology uses the recombinant cell lines with stable expression of the α1B or α1D adrenoreceptor and co-expression of apoaequorin and a GPCR as a system to detect the activation of the receptor, following the addition of an agonist, via the measurement of light emission. For measurement, cells (frozen, ready to use) were thawed and resuspended in 10-mL of assay buffer containing 5 μM coelenterazine h. This cell suspension was put in a 10-mL Falcon tube, fixed onto a rotating wheel and incubated overnight at RT° in the dark. Cells were diluted with Assay Buffer to 5000 cells/20 µL. In the first part, agonistic activity was tested. Potential agonists (standard and tested) 2× (50 μL/well), diluted in Assay Buffer, were prepared in 1/2 white polystryrene area plates, and the cell suspension was dispensed in 50 μL volume on the ligands using the injector. The light emitted was recorded for 20 s. In the second part, the agonistic activity was tested. Cells with tested compounds were incubated for 15 min at room temperature.

α1A-AR = target: T3, α1A-AR (Homo sapiens, UniProt P35348); test: Intrinsic (functional) activity for α1A-AR; format: cell-based; conditions: antagonist potency; α1A-AR in rat tail artery (table title); 4–7 experimental results; read-out: IC50 ± SEM α1A-AR
T3 sequence (P35348 1-466): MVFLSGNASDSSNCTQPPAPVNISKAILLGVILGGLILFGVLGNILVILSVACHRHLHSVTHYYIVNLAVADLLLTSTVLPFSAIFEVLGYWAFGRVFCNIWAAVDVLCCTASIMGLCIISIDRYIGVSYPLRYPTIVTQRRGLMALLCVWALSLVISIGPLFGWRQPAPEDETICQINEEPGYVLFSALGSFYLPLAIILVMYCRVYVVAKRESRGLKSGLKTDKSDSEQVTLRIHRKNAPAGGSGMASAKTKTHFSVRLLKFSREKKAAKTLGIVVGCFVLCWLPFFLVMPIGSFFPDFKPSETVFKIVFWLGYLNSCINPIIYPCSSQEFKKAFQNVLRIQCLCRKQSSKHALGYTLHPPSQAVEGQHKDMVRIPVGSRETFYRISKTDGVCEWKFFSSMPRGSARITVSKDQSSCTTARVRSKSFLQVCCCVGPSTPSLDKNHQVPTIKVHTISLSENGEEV
Description: An intrinsic activity assay was performed according to the manufacturer of the assay kit (Invitrogen, Thermo Fisher Scientific). […] Of the cell suspension, 32 µL per well was added to the Test Compound wells, the Unstimulated Control wells, and Stimulated Control wells and were incubated per 16–24 h. […] Then, both the agonist and the antagonist plate were incubated in a humidified 37 °C/5% CO2 incubator for 5 h. Then, cells were loaded with 8 µL of LiveBLAzer™-FRET B/G Substrate Mixture (CCF4-AM, Thermo Fisher Scientific) and incubated at room temperature for 2 h.

α1-receptor [2] = target: α1-receptor; set-up: method as in PMID 31383628, PMID 29425815; conditions: previously reported arylpiperazine hydantoin derivatives; cited from earlier work
5-HT1AR = target: 5-HT1AR; set-up: method as in PMID 31330215; conditions: cited from earlier work
5-HT2AR = target: 5-HT2AR; set-up: method as in PMID 31330215; conditions: cited from earlier work
α1AR = target: α1AR; set-up: method as in PMID 31330215; conditions: cited from earlier work
α1BR = target: α1BR; set-up: method as in PMID 31330215; conditions: cited from earlier work
α1DR = target: α1DR; set-up: method as in PMID 31330215; conditions: cited from earlier work
behavioral models = test system: behavioral models; set-up: method as in PMID 31330215; conditions: cited from earlier work

Compound: COc1ccc(/C=C2\NC(=O)N(CC(O)CN3CCN(c4ccccc4OC)CC3)C2=O)cc1 (centres unmarked) [Compound 6, (Z)-3-(2-hydroxy-3-(4-(2-methoxyphenyl)piperazin-1-yl)propyl)-5-(4-methoxybenzylidene)imidazolidine-2,4-dione]
- Ki (α1-receptor [1]): 145 ± 13.3 nM
- melting point: 176 to 178 °C
- Ki (human 5-HT6 receptor): 20400 nM
- Ki (human 5-HT7b receptor): 197 nM
- Ki (human 5-HT1A receptor): 282 nM

Compound: CCOc1ccccc1N1CCN(CC(O)CN2C(=O)N/C(=C\c3ccc(OC)cc3)C2=O)CC1 (centres unmarked) [Compound 7, (Z)-3-(3-(4-(2-ethoxyphenyl)piperazin-1-yl)-2-hydroxypropyl)-5-(4-methoxybenzylidene)imidazolidine-2,4-dione]
- Ki (α1-receptor [1]): 99.1 ± 11.3 nM
- Ki (human 5-HT6 receptor): 10200 nM
- Ki (human 5-HT7b receptor): 120 nM
- Ki (human 5-HT1A receptor): 313 nM

Compound: CCOc1ccccc1OCCN[C@H](C)Cc1ccc(OC)c(S(N)(=O)=O)c1 [Tamsulosin, reference compound]
- IC50 (α1B-AR): 0.13 ± 0.02 nM

Compound: COc1ccc(/C=C2\NC(=O)N(CCCN3CCN(c4ccccc4OC)CC3)C2=O)cc1OC [Compound 14]
- Ki (α1-receptor [1]): 11.9 ± 2.2 nM
- IC50 (α1A-AR): 57.6 ± 7.2 nM
- IC50 (α1B-AR): 182 ± 21.4 nM
- Ki (human 5-HT6 receptor): 15800 nM
- Ki (human 5-HT7b receptor): 189 nM
- Ki (human 5-HT1A receptor): 128 nM

Compound: COc1ccc(/C=C2\NC(=O)N(CC(O)CN3CCN(c4ccccc4F)CC3)C2=O)cc1 (centres unmarked) [Compound 8, (Z)-3-(3-(4-(2-fluorophenyl)piperazin-1-yl)-2-hydroxypropyl)-5-(4-methoxybenzylidene)imidazolidine-2,4-dione]
- Ki (α1-receptor [1]): 144 ± 7.9 nM
- melting point: 104 to 106 °C
- Ki (human 5-HT6 receptor): 11700 nM
- Ki (human 5-HT7b receptor): 1040 nM
- Ki (human 5-HT1A receptor): 3530 nM

Compound: CCOc1ccccc1N1CCN(CC(O)CN2C(=O)N/C(=C\c3cccc(OC)c3)C2=O)CC1 (centres unmarked) [Compound 5, (Z)-3-(3-(4-(2-ethoxyphenyl)piperazin-1-yl)-2-hydroxypropyl)-5-(3-methoxybenzylidene)imidazolidine-2,4-dione]
- Ki (α1-receptor [1]): 75.9 ± 2.3 nM
- Ki (human 5-HT6 receptor): 19200 nM
- Ki (human 5-HT7b receptor): 79 nM
- Ki (human 5-HT1A receptor): 557 nM

Compound: COc1cccc(/C=C2\NC(=O)N(CC(O)CN3CCN(c4ccccc4OC)CC3)C2=O)c1 (centres unmarked) [Compound 4, (Z)-3-(2-hydroxy-3-(4-(2-methoxyphenyl)piperazin-1-yl)propyl)-5-(3-methoxybenzylidene)imidazolidine-2,4-dione]
- Ki (α1-receptor [1]): 187 ± 18.6 nM
- Ki (human 5-HT6 receptor): 17600 nM
- Ki (human 5-HT7b receptor): 283 nM
- Ki (human 5-HT1A receptor): 530 nM

Compound: COc1ccccc1N1CCN(CC(O)CN2C(=O)NC(C)(c3ccc(F)cc3)C2=O)CC1 (centres unmarked) [Compound 2]
- Ki (α1-receptor [2]): 230 nM

Compound: CCOc1ccccc1N1CCN(CCCN2C(=O)N/C(=C\c3ccc(OC)cc3)C2=O)CC1 [Compound 13, (Z)-3-(3-(4-(2-ethoxyphenyl)piperazin-1-yl)propyl)-5-(4-methoxybenzylidene)imidazolidine-2,4-dione]
- Ki (α1-receptor [1]): 19.5 ± 2.6 nM
- melting point: 180 to 183 °C
- Ki (human 5-HT6 receptor): > 50000 nM
- Ki (human 5-HT7b receptor): 114 nM
- Ki (human 5-HT1A receptor): 45.8 nM

Compound: COc1ccccc1N1CCN(CCCN2C(=O)N/C(=C\c3cc(OC)c(OC)c(OC)c3)C2=O)CC1 [Compound 15, (Z)-3-(3-(4-(2-methoxyphenyl)piperazin-1-yl)propyl)-5-(3,4,5-trimethoxybenzylidene)imidazolidine-2,4-dione]
- Ki (α1-receptor [1]): 25.8 ± 2.9 nM
- melting point: 130 to 132 °C
- Ki (human 5-HT6 receptor): 12300 nM
- Ki (human 5-HT7b receptor): 668 nM
- Ki (human 5-HT1A receptor): 172 nM

Compound: CCOc1ccccc1N1CCN(CC(O)CN2C(=O)N/C(=C\c3cc(OC)c(OC)c(OC)c3)C2=O)CC1 (centres unmarked) [Compound 9, (Z)-3-(3-(4-(2-ethoxyphenyl)piperazin-1-yl)-2-hydroxypropyl)-5-(3,4,5-trimethoxybenzylidene)imidazolidine-2,4-dione]
- Ki (α1-receptor [1]): 89.5 ± 9 nM
- melting point: 104 to 106 °C
- Ki (human 5-HT6 receptor): 2830 nM
- Ki (human 5-HT7b receptor): 1250 nM
- Ki (human 5-HT1A receptor): 1870 nM

Compound: COc1ccc(/C=C2\NC(=O)N(CCCN3CCN(c4ccccc4OC)CC3)C2=O)cc1 [Compound 12, (Z)-5-(4-methoxybenzylidene)-3-(3-(4-(2-methoxyphenyl)piperazin-1-yl)propyl)imidazolidine-2,4-dione]
- Ki (α1-receptor [1]): 34.6 ± 4.6 nM
- IC50 (α1A-AR): 12.8 ± 2.5 nM
- IC50 (α1B-AR): 8.5 ± 1.1 nM
- Ki (human 5-HT6 receptor): 22000 nM
- Ki (human 5-HT7b receptor): 101 nM
- Ki (human 5-HT1A receptor): 20.6 nM

Compound: CCOc1ccccc1N1CCN(CCCN2C(=O)N/C(=C\c3cccc(OC)c3)C2=O)CC1 [Compound 10, (Z)-3-(3-(4-(2-ethoxyphenyl)piperazin-1-yl)propyl)-5-(3-methoxybenzylidene)imidazolidine-2,4-dione]
- Ki (α1-receptor [1]): 20.2 ± 4.1 nM
- IC50 (α1A-AR): 7.2 ± 1.1 nM
- IC50 (α1B-AR): 9.2 ± 1.3 nM
- Ki (human 5-HT1A receptor): 103 nM

Compound: COc1ccccc1N1CCN(CCn2cnc3ccccc3c2=O)CC1 [ACH-000029]
- Ki (5-HT1AR): 14 nM
- Ki (5-HT2AR): 500 nM
- Ki (α1AR): 0.07 nM
- Ki (α1BR): 4.6 nM
- Ki (α1DR): 1.1 nM
- anxiolytic activity (behavioral models): anxiolytic activity in behavioral models

Compound: Cc1ccc(N(CC2=NCCN2)c2cccc(O)c2)cc1 [fentolamine, reference compound]
- Ki (α1-receptor [1]): 15.7 ± 1.5 nM

Compound: COc1cccc(/C=C2\NC(=O)N(CCCN3CCN(c4ccccc4Cl)CC3)C2=O)c1 [Compound 11, (Z)-3-(3-(4-(2-chlorophenyl)piperazin-1-yl)propyl)-5-(3-methoxybenzylidene)imidazolidine-2,4-dione]
- Ki (α1-receptor [1]): 44.8 ± 3.3 nM
- melting point: 144 to 146 °C
- Ki (human 5-HT6 receptor): 1720 nM
- Ki (human 5-HT7b receptor): 152 nM
- Ki (human 5-HT1A receptor): 319 nM

Compound: CCOc1ccccc1N1CCN(CCCN2C(=O)N/C(=C\c3cc(OC)c(OC)c(OC)c3)C2=O)CC1 [Compound 16, (Z)-3-(3-(4-(2-ethoxyphenyl)piperazin-1-yl)propyl)-5-(3,4,5-trimethoxybenzylidene)imidazolidine-2,4-dione]
- Ki (α1-receptor [1]): 14.7 ± 1.1 nM
- IC50 (α1A-AR): 19.1 ± 3.4 nM
- IC50 (α1B-AR): 0.82 ± 0.1 nM
- Ki (human 5-HT6 receptor): 15200 nM
- Ki (human 5-HT7b receptor): 138 nM
- Ki (human 5-HT1A receptor): 165 nM

Compound: COc1ccc(/C=C2\NC(=O)N(CC(O)CN3CCN(c4ccccc4OC)CC3)C2=O)cc1OC (centres unmarked) [Compound 1]
- Ki (α1-receptor [2]): 44.5 nM
